Among the data in ChEMBL document CHEMBL1146957, “An efficient, asymmetric solid-phase synthesis of benzothiadiazine-substituted tetramic acids: potent inhibitors of the hepatitis C virus RNA-dependent RNA polymerase” (Bioorg Med Chem Lett, 2006) are IC50 values, retold here.

Structures are written as SMILES.

Assay [1] concerns the target RNA-directed RNA polymerase (Hepacivirus hominis, UniProt O39930). Put plainly: Inhibition of HCV NS5B RNA dependent RNA polymerase.
The subject of a further assay is Hepatitis C virus. Put plainly: Inhibition of HCV replication. It counts as functional, organism-based, Hepacivirus hominis.

Chain of RNA-directed RNA polymerase (O39930 whole entry): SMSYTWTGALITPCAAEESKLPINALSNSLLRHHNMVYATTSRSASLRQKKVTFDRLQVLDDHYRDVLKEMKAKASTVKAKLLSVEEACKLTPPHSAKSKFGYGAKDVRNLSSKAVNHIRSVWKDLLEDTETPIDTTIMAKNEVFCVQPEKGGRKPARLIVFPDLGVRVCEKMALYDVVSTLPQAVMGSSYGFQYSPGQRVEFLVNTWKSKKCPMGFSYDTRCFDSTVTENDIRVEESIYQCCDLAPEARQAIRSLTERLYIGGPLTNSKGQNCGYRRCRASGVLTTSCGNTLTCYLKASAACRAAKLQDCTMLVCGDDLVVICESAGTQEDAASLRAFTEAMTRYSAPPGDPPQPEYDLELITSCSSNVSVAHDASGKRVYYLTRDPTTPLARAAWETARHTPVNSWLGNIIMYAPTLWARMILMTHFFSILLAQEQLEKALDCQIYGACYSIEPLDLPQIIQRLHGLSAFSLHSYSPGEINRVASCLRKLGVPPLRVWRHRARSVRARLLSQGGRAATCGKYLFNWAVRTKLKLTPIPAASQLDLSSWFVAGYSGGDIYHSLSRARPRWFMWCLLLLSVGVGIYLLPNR

As to `CC(C)CCn1c(=O)c(C2=NS(=O)(=O)c3ccccc3N2)c(O)c2ccccc21`, the concentration for half-maximal inhibition (IC50) in assay [1] was determined as 200 nM; with Hepatitis C virus, 269000 nM.
As to `CC(C)(C)CCN1C(=O)C(C2=NS(=O)(=O)c3ccccc3N2)=C(O)[C@@H]1C1CCCCC1`, in assay [1], 486 nM corresponded to half-maximal inhibition (IC50).
Consider `CC(C)(C)CCN1C(=O)C(C2=NS(=O)(=O)c3ccccc3N2)=C(O)[C@@H]1C(C)(C)C`, for which half-maximal inhibition in assay [1] (IC50) required 1.7 nM.
In the case of `CC(C)(C)[C@H]1C(O)=C(C2=NS(=O)(=O)c3ccccc3N2)C(=O)N1Cc1ccccc1`, the IC50 amounted to 22 nM in assay [1] and 13000 nM in the assay on Hepatitis C virus.
In assay [1], `O=C1C(C2=NS(=O)(=O)c3ccccc3N2)=C(O)[C@H](Cc2cccnc2)N1Cc1ccc(F)cc1` returned an IC50 of 2470 nM.
Take `CC(C)CCN1C(=O)C(C2=NS(=O)(=O)c3ccccc3N2)=C(O)[C@@H]1C(C)(C)C`: the values for the IC50 (in assay [1]; in the assay with Hepatitis C virus) were 18 nM and 8000 nM, respectively.
For `CCC(C)[C@H]1C(O)=C(C2=NS(=O)(=O)c3ccccc3N2)C(=O)N1Cc1ccccc1` (some centres undefined), the IC50 was 88 nM in assay [1] and 37000 nM in the assay on Hepatitis C virus.
Take `CC(C)CCN1C(=O)C(C2=NS(=O)(=O)c3ccccc3N2)=C(O)[C@@H]1C(C)C`: the IC50 in assay [1] was found to be 147 nM; in the assay with Hepatitis C virus, 159000 nM.
Regarding `CC(C)CCN1C(=O)C(C2=NS(=O)(=O)c3ccccc3N2)=C(O)[C@@H]1Cc1ccccc1`, the IC50 in assay [1] was 3570 nM; with Hepatitis C virus, > 60000 nM.
Take `CC(C)(C)[C@H]1C(O)=C(C2=NS(=O)(=O)c3ccccc3N2)C(=O)N1Cc1ccc(F)cc1`: in assay [1], it took 59 nM to reach half-maximal inhibition (IC50).
As for `CC(C)(C)CCN1C(=O)C(C2=NS(=O)(=O)c3ccccc3N2)=C(O)[C@@H]1c1ccc(F)cc1`, in assay [1], the IC50 was > 748 nM.
In the case of `CC(C)(C)[C@H]1C(O)=C(C2=NS(=O)(=O)c3ccccc3N2)C(=O)N1CCC1CC1`, half-maximal inhibition in assay [1] (IC50) required 530 nM.
For the molecule `CC(C)(C)[C@H]1C(O)=C(C2=NS(=O)(=O)c3ccccc3N2)C(=O)N1Cc1ccccn1`, the IC50 in assay [1] was > 100000 nM.

The IC50 is the concentration that inhibits the measured activity by half. Read a high IC50 as weaker potency in that assay.
